Experimental data from ChEMBL document CHEMBL1201862, “PubChem BioAssay data set” (2004).
Active and inactive are the calls of the source. Cut-off read from the data, not from the text of the source: actives have a measured EC50 and inactives only a lower limit.

Columns and labels:
[1] = molecular target: T1, Corticotropin-releasing factor receptor 2/Corticotropin-releasing factor-binding protein (Homo sapiens, UniProt P24387+Q13324); test: activators of CRF receptor 2 with binding protein – uHTS hits, confirmation (AID 602473); assay type: functional; details: read-out: EC50_Mean
T1 sequence (Q13324 whole entry): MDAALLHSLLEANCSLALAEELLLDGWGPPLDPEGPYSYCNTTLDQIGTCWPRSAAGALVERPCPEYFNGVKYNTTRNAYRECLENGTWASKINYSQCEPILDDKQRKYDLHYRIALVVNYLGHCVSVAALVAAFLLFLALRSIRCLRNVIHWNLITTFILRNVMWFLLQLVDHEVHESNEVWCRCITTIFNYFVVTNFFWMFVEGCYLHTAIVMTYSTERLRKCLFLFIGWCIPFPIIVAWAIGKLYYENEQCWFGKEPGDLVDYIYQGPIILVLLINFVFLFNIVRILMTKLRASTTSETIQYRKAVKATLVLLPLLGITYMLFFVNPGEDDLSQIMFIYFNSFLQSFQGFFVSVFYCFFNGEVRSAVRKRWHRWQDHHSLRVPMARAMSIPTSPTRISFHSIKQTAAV
T1 sequence (P24387 whole entry): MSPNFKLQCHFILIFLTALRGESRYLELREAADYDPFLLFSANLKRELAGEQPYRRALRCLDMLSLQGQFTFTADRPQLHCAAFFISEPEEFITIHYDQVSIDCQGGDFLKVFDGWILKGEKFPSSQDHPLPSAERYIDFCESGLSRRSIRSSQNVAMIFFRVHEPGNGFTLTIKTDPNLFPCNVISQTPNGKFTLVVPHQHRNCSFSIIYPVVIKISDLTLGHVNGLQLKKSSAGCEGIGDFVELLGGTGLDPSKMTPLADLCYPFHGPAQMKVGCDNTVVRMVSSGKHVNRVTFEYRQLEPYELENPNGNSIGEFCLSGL

[2] = molecular target: T2, Heat shock factor protein 1 (Mus musculus, UniProt P38532); test: enhancement of HSF1-driven luciferase signal – cell-based, NIH3T3, luminescence, dose retest, confirmation (AID 435004); assay type: functional;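 note: stress induced by proteasome inhibitor MG132 added 30 min after compound; luciferase reporter driven by HSF1 response element in NIH3T3 cells; actives raise luminescence as potentiators of the MG132 stress response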
T2 sequence (P38532 whole entry): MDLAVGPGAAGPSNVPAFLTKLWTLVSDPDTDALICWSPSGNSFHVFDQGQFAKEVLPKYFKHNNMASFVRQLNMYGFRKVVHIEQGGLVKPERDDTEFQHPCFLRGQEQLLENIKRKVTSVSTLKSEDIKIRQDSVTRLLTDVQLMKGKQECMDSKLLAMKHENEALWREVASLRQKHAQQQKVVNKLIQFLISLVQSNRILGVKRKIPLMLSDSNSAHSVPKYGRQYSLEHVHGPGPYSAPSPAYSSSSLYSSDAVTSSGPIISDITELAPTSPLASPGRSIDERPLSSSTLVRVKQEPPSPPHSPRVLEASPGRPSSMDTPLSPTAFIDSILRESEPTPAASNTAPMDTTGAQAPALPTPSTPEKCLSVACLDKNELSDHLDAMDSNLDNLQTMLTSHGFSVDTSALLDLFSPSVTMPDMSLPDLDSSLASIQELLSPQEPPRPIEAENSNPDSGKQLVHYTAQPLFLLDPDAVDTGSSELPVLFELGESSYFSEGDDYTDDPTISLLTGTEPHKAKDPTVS

Streptokinase A = molecular target: T3, Streptokinase A (Streptococcus pyogenes serotype M1, UniProt P10520); test: viability-normalized secreted streptokinase activity reduction – plasminogen activation absorbance, OD405, dose response (AID 1914); assay type: functional, Streptococcus pyogenes M1 GAS;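 note: secreted streptokinase activity via plasminogen activation per viability signal from cell pellet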
T3 sequence (P10520 whole entry): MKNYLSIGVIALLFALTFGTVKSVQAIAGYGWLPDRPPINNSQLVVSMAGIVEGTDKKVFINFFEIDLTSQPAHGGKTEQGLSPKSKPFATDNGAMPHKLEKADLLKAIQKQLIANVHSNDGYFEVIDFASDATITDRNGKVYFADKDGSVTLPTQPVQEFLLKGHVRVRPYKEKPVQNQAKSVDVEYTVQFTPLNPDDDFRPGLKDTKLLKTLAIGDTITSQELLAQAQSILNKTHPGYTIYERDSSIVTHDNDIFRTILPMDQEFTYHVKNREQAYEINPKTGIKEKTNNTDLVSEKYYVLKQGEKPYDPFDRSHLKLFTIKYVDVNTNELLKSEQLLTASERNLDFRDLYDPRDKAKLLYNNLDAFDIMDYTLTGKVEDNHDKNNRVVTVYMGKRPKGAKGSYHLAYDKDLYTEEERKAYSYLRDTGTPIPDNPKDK

Streptococcus = test: GAS UMAA2166 growth inhibition – luminescence, BacTiterGlo, counter-screen for streptokinase expression inhibitor project, dose response (AID 1915); assay type: functional, organism-based;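 note: potency for reduction of bacterial viability or growth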
[3] = system: Streptococcus sp. 'group A'; test: Streptococcus pyogenes SK(-)GAS viability under kanamycin – luminescence, BacTiterGlo, confirmation, counter-screen for streptokinase expression inhibitor project, dose response (AID 1900); assay type: functional, organism-based
[4] = NIH3T3 cell viability loss – ATP luminescence, mouse fibroblasts, counter-screen, dose response (AID 2010); assay type: functional, cell-based;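 note: cells exposed to compound for about 90 hours before reading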
[5] = Trypanosoma cruzi growth suppression in host cells – NIH3T3 host cells, beta-gal luminescence, confirmation (AID 2044); assay type: functional, cell-based;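 note: intracellular parasites grown in NIH/3T3 mouse fibroblasts as host cells; luminescent beta-galactosidase reporter signal from transgenic T. cruzi replicating inside host cells; inhibitors lower the luminescence signal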

Compound	EC50 (Streptokinase A)	EC50 (Streptococcus)	EC50 [3]	further results
Cc1cnc(NC(=O)CSc2ncc(-c3ccccc3)n2Cc2ccco2)s1				EC50 [1]: 5.51 µM (active)
COc1ccc(-c2nc3scc(-c4ccccc4)n3n2)cc1				EC50 [2]: > 260 µM (inactive)
Cc1cccc(CN2CCCC(C(=O)c3ccc4c5c(cccc35)CC4)C2)n1 (stereo unspecified)	> 150 µM (not active)	> 150 µM (not active)	15 µM (active)	
NC(=O)CSC1=N/C(=C\c2ccco2)C(=O)N1c1ccc(OC(F)F)cc1				EC50 [2]: 13.7 µM (active)
c1ccc(-c2nnc(-c3c[nH]c4ccccc34)nc2-c2ccccc2)cc1	20.1 µM (active)	68.7 µM (active)	14.7 µM (active)	
CC(C)C(=O)N1CCC(n2nccc2NC(=O)CCOc2ccccc2)CC1				EC50 [2]: > 260 µM (inactive)
CN(C)CCN(C(=O)c1ccc(S(=O)(=O)N(C)c2ccccc2)cc1)c1nc2cc3c(cc2s1)OCO3				EC50 [4]: > 60 µM (not active); EC50 [5]: 0.145 µM (active)
Cc1cc(Cl)ccc1OCc1nc(-c2ccncc2)no1				EC50 [4]: > 60 µM (inconclusive); EC50 [5]: 2.43 µM (active)
Cc1cccc(C)c1NC(=O)CN(C)CC(=O)Nc1sc2c(c1C(N)=O)CCC2	> 150 µM (not active)	> 150 µM (not active)	> 150 µM (not active)	
Cc1ccc(S(=O)(=O)NC(C(=O)O)c2ccccc2)cc1 (stereo unspecified)				EC50 [1]: > 53 µM (inactive)
Cc1ccc(C(=O)NC(=S)N(C)C2CCCCC2)cc1Br		6.98 µM (active)	2.54 µM (active)	EC50 [4]: 8.13 µM (active); EC50 [5]: 2.07 µM (active)
Cc1ccc2nc(NCCC(=O)O)nc(-c3ccccc3)c2c1				EC50 [1]: 5.3 µM (active)
Fc1ccc(-c2cc(C(F)(F)C(F)F)[nH]n2)cc1				EC50 [1]: 6.17 µM (active)
CCN(CC(=O)NC(C)C)Cc1nc(O)c2c3c(sc2n1)CCC3				EC50 [2]: > 260 µM (inactive)
CCNC(=O)C(=O)NCc1ccncc1				EC50 [2]: > 260 µM (inactive)
CC(C)n1cc(/C=N/NC(=O)COc2cccc3cccnc23)c2ccccc21				EC50 [2]: 75.1 µM (active)
O=C1NC(=O)N(Cc2ccccc2)C(=O)/C1=C/NNC(=O)c1ccccc1	> 150 µM (not active)	16.4 µM (active)	9.3 µM (active)	
Cn1c(O)cc(=O)nc1SCC(=O)Nc1ccc(Cl)cc1		> 150 µM (not active)	29.9 µM (active)	
O=C(Nc1ccccc1C(=O)OCC(=O)c1c[nH]c2ccccc12)c1ccco1				EC50 [2]: 55.3 µM (active)
Cc1cc(C)cc(C(=O)NC2C(=O)N3C(C(=O)O)=C(CSc4nnc(C)s4)CSC23)c1 (stereo unspecified)	> 150 µM (not active)	1.62 µM (active)	0.512 µM (active)	
CC(=O)Nc1ccc(NC(=O)CSc2nnc(NC(=O)c3ccc(Br)o3)s2)cc1	> 150 µM (not active)	44 µM (active)	8.52 µM (active)	
O=C(CSc1nnc(-c2cccs2)o1)N1CCCc2ccccc21				EC50 [2]: > 260 µM (inactive)
O=C(CSc1nc[nH]n1)c1cccc([N+](=O)[O-])c1				EC50 [2]: > 260 µM (inactive)
C#CCN(N(C)c1ncc(C(F)(F)F)cc1Cl)S(=O)(=O)c1ccc2ccccc2c1				EC50 [1]: > 53 µM (inactive)

Compound	EC50 (Streptokinase A)	EC50 (Streptococcus)	EC50 [3]	further results
C/C(=N\NC(=S)Nc1ccc(C)cc1)c1cccc(N)c1				EC50 [1]: > 53 µM (inactive)
Cc1ccc2ccc(C(Nc3cccc(C(F)(F)F)c3)c3cccnc3)c(O)c2n1 (stereo unspecified)	> 150 µM (not active)	10.7 µM (active)	2.12 µM (active)	
CC12CC3(C)CC(C)(C1)CC(C(=O)NC1=NCCS1)(C2)C3	> 150 µM (not active)	> 150 µM (not active)	3.33 µM (active)	
FC(F)(F)c1cccc(CNC2c3ccccc3-c3ccccc32)c1	19 µM (active)	> 150 µM (not active)	22.8 µM (active)	
c1ccc2c(c1)nc(Nc1ccc(N3CCCCC3)cc1)c1nncn12	> 150 µM (not active)	91.3 µM (active)	6.13 µM (active)	
CCOC(=O)c1csc(N/N=C2\CCCc3ccccc32)n1	> 150 µM (not active)	16 µM (active)	9.3 µM (active)	
COc1cccc(C2CC(c3cccs3)=NN2C(=O)CSc2nc(O)c3cnn(-c4ccc(F)cc4)c3n2)c1OC (stereo unspecified)		11.6 µM (active)	1.63 µM (active)	
Cc1ccc(C(=N)NOC(=O)N2CCOCC2)cc1				EC50 [4]: > 60 µM (not active); EC50 [5]: 1.95 µM (active)
COc1cc(/C=C(/C#N)C(=O)c2c(C)[nH]c3ccccc23)ccc1OCC#N				EC50 [2]: > 260 µM (inactive)
OC1(C#Cc2c(-c3ccsc3)oc3ccc(N4CCOCC4)cc23)CCCCC1	54.6 µM (inconclusive)	15.3 µM (active)	6.92 µM (active)	
CCOC(=O)CC(NC(=O)CCS(=O)(=O)c1ccc2c(c1)n(C)c(=O)c(=O)n2C)c1ccc(C)cc1 (stereo unspecified)	> 150 µM (not active)	> 150 µM (not active)	> 150 µM (not active)	
Cc1nc2c(C(=O)NCc3ccc4c(c3)OCO4)cnn2c(C)c1Cc1ccc(F)cc1Cl	42.9 µM (active)	> 150 µM (not active)	9.62 µM (active)	
COc1ccc(-c2c[n+](-c3ccccc3)c3n2CCS3)cc1				EC50 [4]: > 60 µM (not active); EC50 [5]: 0.688 µM (active)
CCOP(=O)(C(NC(=O)c1ccccc1Cl)=C(Cl)Cl)c1ccccc1 (stereo unspecified)				EC50 [2]: > 260 µM (inactive)
COc1ccc(OC)c(N/C(C)=C/C(=O)c2ccccc2)c1				EC50 [4]: > 60 µM (not active); EC50 [5]: 2.49 µM (active)
Cc1ccc(NS(=O)(=O)c2ccc(C(=O)N3CC(C)OC(C)C3)cc2)cc1 (stereo unspecified)				EC50 [1]: 8.95 µM (active)
COCCn1c(-c2cc(OC)c(OC)c(OC)c2)nc2oc3cc(OC)ccc3c(=O)c2c1=O	> 150 µM (not active)	> 150 µM (not active)	> 150 µM (not active)	
COc1ccc2[nH]c(CN3CCN(CCC(C)C)C(CCO)C3)c(C)c2c1 (stereo unspecified)				EC50 [4]: > 60 µM (not active); EC50 [5]: 0.648 µM (active)
COc1ccc(C#Cc2ccc3c(=O)c4ccccc4n(C)c3c2)cc1	110 µM (active)	102 µM (active)	10.3 µM (active)	
Cc1cc(C)c(COc2ccc(/C=N/n3c(C)nnc3S)cc2)c(C)c1	12 µM (active)	12.2 µM (active)	4.01 µM (active)	
COC(=O)c1c(C)oc2ccc(N(C(=O)Oc3ccccc3)S(=O)(=O)c3ccccc3)cc12				EC50 [2]: > 260 µM (inactive)
FC(F)(F)c1cccc(Cn2nnnc2-c2cc(Cl)cc(Cl)c2)c1				EC50 [2]: > 260 µM (inactive)
COc1ccc(C(=O)NC(=S)N2CCCCC2c2cccnc2)cc1OC (stereo unspecified)				EC50 [4]: > 60 µM (not active); EC50 [2]: > 260 µM (inactive); EC50 [5]: 1.32 µM (active)
Clc1ccc(C2=NCCN2)cc1				EC50 [4]: > 60 µM (not active); EC50 [5]: 0.24 µM (active)
